Data published in paper PMC8205226, “HIV-1 Integrase Inhibitors with Modifications That Affect Their Potencies against Drug Resistant Integrase Mutants” (ACS Infectious Diseases, 2021).
Like-named read-outs stand apart in the source and are kept apart here.

How the values were obtained:
Assay type in all cases: cell-based
HIV-1 IN mutant Y143C = assay: single-round infectivity assay, Y143C IN mutant
Description: (§1) Figure 4 Mutations in the β5-α3 loop affect the antiviral potencies of the new compounds. The EC50 values were determined using a vector that carries the IN mutant in a single round infection assay. […] Error bars represent the standard deviations of independent experiments, n = 4, performed in triplicate.
(§2) WT and mutant HIV-1 viral vectors were used in single-round infectivity assays to determine the antiviral potencies (EC50 values) of the compounds and the effects of the mutants on the EC50 values as previously described.[30],[54] Single round infectivity measurements were determined as done previously.[38]
(§3) The vector pNLNgoMIVR-ΔENV.LUC has been described previously.[26] To produce the new IN mutants used in this study, the IN open reading frame was removed from pNLNgoMIVR-ΔENV.LUC by digestion with KpnI and SalI, and the resulting fragment was inserted between the KpnI and SalI sites of pBluescript KS+. Using that construct as the wild-type template, we prepared the following HIV-1 IN mutants using the QuikChange II XL site directed mutagenesis kit (Agilent Technologies, Santa Clara, CA) protocol: N117A, N117H, P142A, P142H, P142S, Y143C, Y143H, S230R, R231G, and R231K. The following sense oligonucleotides were used with matching cognate antisense oligonucleotides (not shown) (Integrated DNA Technologies, Coralville, IA) in the mutagenesis: N117A, 5′-[…]-3′; N117H, 5′-[…]-3′; P142A, 5′-[…]-3′; P142H, 5′-[…]-3′; P142S, 5′-[…]-3′; Y143C, 5′- […]-3′; Y143H, 5′-[…]-3′; S230R, 5′- […]-3′; R231G, 5′-[…]-3′; R231K, 5′-[…]-3′.

HIV-1 IN mutant R231G = assay: single-round infectivity assay, R231G IN mutant
Description: (§4) Figure 5 Antiviral potencies of the new compounds against IN with mutations in the […]. The EC50 values were determined using a vector that carries the IN mutant in a single round infection assay. […] Error bars represent the standard deviations of independent experiments, n = 4, performed in triplicate.
as §2, §3

HIV-1 IN mutant N155H = assay: single-round infectivity assay, N155H IN mutant
Description: (§5) Figure 2 Antiviral activities of the new compounds against RAL-resistant mutants. The EC50 values were determined using a vector that carries WT HIV-1 IN and the RAL-resistant mutants in a single round infection assay. […] Error bars represent the standard deviations of independent experiments, n = 4, performed in triplicate. The graph has a maximum value of 550 nM.
as §2, §3

HIV-1 IN mutant P142S = assay: single-round infectivity assay, P142S IN mutant
Description: as §1, §2, §3

HIV-1 IN mutant R231K = assay: single-round infectivity assay, R231K IN mutant
Description: as §4, §2, §3

HIV-1 IN mutant Y143R = assay: single-round infectivity assay, Y143R IN mutant
Description: as §5, §2, §3

HIV-1 IN mutant G118R = assay: single-round infectivity assay, G118R IN mutant
Description: (§6) The EC50 values were determined using a vector that carries the IN mutant in a single round infection assay. […] Error bars represent the standard deviations of independent experiments, n = 4, performed in triplicate.
as §2, §3

HIV-1 IN mutant P142H = assay: single-round infectivity assay, P142H IN mutant
Description: as §6
Single round infectivity measurements were determined as done previously.[38]
as §3

HIV-1 IN mutant N117A = assay: single-round infectivity assay, N117A IN mutant
Description: as §6, §2, §3

[1] = tested on: HIV-1 IN double mutant G140S/Q148H; assay: single-round infectivity assay, G140S/Q148H IN double mutant
Description: as §5, §2, §3

HIV-1 IN mutant N117H = assay: single-round infectivity assay, N117H IN mutant
Description: as §6, §2, §3

HIV-1 IN mutant S230R = assay: single-round infectivity assay, S230R IN mutant
Description: as §4, §2, §3

HIV-1 IN mutant Y143H = assay: single-round infectivity assay, Y143H IN mutant
Description: as §1, §2, §3

HIV-1 IN mutant S119R = assay: single-round infectivity assay, S119R IN mutant
Description: as §6, §2, §3

HIV-1 IN mutant P142A = assay: single-round infectivity assay, P142A IN mutant
Description: as §1, §2, §3

WT HIV-1 = assay: single-round infectivity assay, WT HIV-1 IN vector; conditions: Human immunodeficiency virus 1, read-out: EC50 values WT, vector carrying WT HIV-1 IN, single round infection, n = 4; new compounds
Description: as §5, §2, §3

[2] = fold change in EC50, IN mutant versus WT HIV-1

## O=C(NCc1ccc(F)cc1F)c1c(O)c2cc(CCS(=O)(=O)c3ccccc3)cnc2n(O)c1=O [6w, N-(2,4-Difluorobenzyl)-1,4-dihydroxy-2-oxo-6-(2-(phenylsulfonyl)ethyl)-1,2-dihydro-1,8-naphthyridine-3-carboxamide]
HIV-1 IN mutant Y143C; EC50 compound / EC50 DTG
  ratio of the EC50s (our compound relative to DTG) against Y143C: 13.4
HIV-1 IN mutant Y143C; Human immunodeficiency virus 1, read-out: EC50 values Y143C, single round infection, n = 4
  EC50: 0.0188 ± 0.0014 µM
HIV-1 IN mutant Y143C; read-out: EC50 values Y143C, single round infection, n = 4
  EC50: > 0.018 µM
HIV-1 IN mutant R231G; EC50 compound / EC50 DTG
  ratio of the EC50s (our compound relative to DTG) against R231G: 10.9
HIV-1 IN mutant R231G; Human immunodeficiency virus 1, read-out: EC50 values R231G
  EC50: 0.0152 ± 0.0014 µM
HIV-1 IN mutant R231G; [2]
  FC R231G: 1.4
HIV-1 IN mutant N155H; EC50 compound / EC50 DTG
  ratio of the EC50s (our compound relative to DTG) against N155H: 3.9
HIV-1 IN mutant N155H; Human immunodeficiency virus 1, read-out: EC50 values N155H
  EC50: 0.0141 ± 0.0043 µM
HIV-1 IN mutant N155H; [2]
  FC N155H: 1.3
HIV-1 IN mutant P142S; EC50 compound / EC50 DTG
  ratio of the EC50s (our compound relative to DTG) against P142S: 14.2
HIV-1 IN mutant P142S; Human immunodeficiency virus 1, read-out: EC50 values P142S
  EC50: 0.0312 ± 0.0037 µM
HIV-1 IN mutant R231K; EC50 compound / EC50 DTG
  ratio of the EC50s (our compound relative to DTG) against R231K: 6.7
HIV-1 IN mutant R231K; Human immunodeficiency virus 1, read-out: EC50 values R231K, single round infection, n = 4
  EC50: 0.0282 ± 0.0039 µM
HIV-1 IN mutant R231K; [2]
  FC R231K: 2.7
HIV-1 IN mutant Y143R; EC50 compound / EC50 DTG
  ratio of the EC50s (our compound relative to DTG) against Y143R: 1.7
HIV-1 IN mutant Y143R; Human immunodeficiency virus 1, read-out: EC50 values Y143R
  EC50: 0.0072 ± 0.0017 µM
HIV-1 IN mutant Y143R; [2]
  FC Y143R: 0.7
HIV-1 IN mutant G118R; EC50 compound / EC50 DTG
  ratio of the EC50s (our compound relative to DTG) against G118R: 16.8
HIV-1 IN mutant G118R; Human immunodeficiency virus 1, read-out: EC50 values G118R
  EC50: 0.219 ± 0.0298 µM
HIV-1 IN mutant G118R; [2]
  FC G118R: 20.7
HIV-1 IN mutant P142H; EC50 compound / EC50 DTG
  ratio of the EC50s (our compound relative to DTG) against P142H: 9.2
HIV-1 IN mutant P142H; Human immunodeficiency virus 1, read-out: EC50 values P142H
  EC50: 0.0257 ± 0.002 µM
HIV-1 IN mutant N117A; EC50 compound / EC50 DTG
  ratio of the EC50s (our compound relative to DTG) against N117A: 12.8
HIV-1 IN mutant N117A; Human immunodeficiency virus 1, read-out: EC50 values N117A
  EC50: 0.0064 µM
HIV-1 IN mutant N117A; [2]
  FC N117A: 0.6
[1]; EC50 6w / EC50 4f
  FC, difference in potencies 6w compared to 4f against G140S/Q148H: 18.8
[1]; EC50 compound / EC50 DTG
  ratio of the EC50s (our compound relative to DTG) against G140S/Q148H: 16.8
[1]; Human immunodeficiency virus 1, read-out: EC50 values G140S/Q148H
  EC50: 0.0975 ± 0.0168 µM
[1]; [2]
  FC G140S/Q148H: 9.2
HIV-1 IN mutant N117H; EC50 compound / EC50 DTG
  ratio of the EC50s (our compound relative to DTG) against N117H: 7.9
HIV-1 IN mutant N117H; Human immunodeficiency virus 1, read-out: EC50 values N117H
  EC50: 0.019 ± 0.0014 µM
HIV-1 IN mutant N117H; [2]
  FC N117H: 1.8
HIV-1 IN mutant S230R; EC50 compound / EC50 DTG
  ratio of the EC50s (our compound relative to DTG) against S230R: 2.4
HIV-1 IN mutant S230R; Human immunodeficiency virus 1, read-out: EC50 values S230R
  EC50: 0.0112 ± 0.0016 µM
HIV-1 IN mutant S230R; [2]
  FC S230R: 1.1
HIV-1 IN mutant Y143H; EC50 compound / EC50 DTG
  ratio of the EC50s (our compound relative to DTG) against Y143H: 11.4
HIV-1 IN mutant Y143H; Human immunodeficiency virus 1, read-out: EC50 values Y143H, single round infection, n = 4
  EC50: 0.0251 ± 0.0036 µM
HIV-1 IN mutant Y143H; read-out: EC50 values Y143H, single round infection, n = 4
  EC50: > 0.018 µM
HIV-1 IN mutant S119R; EC50 compound / EC50 DTG
  ratio of the EC50s (our compound relative to DTG) against S119R: 16.6
HIV-1 IN mutant S119R; Human immunodeficiency virus 1, read-out: EC50 values S119R
  EC50: 0.0382 ± 0.006 µM
HIV-1 IN mutant S119R; [2]
  FC S119R: 3.6
HIV-1 IN mutant P142A; EC50 compound / EC50 DTG
  ratio of the EC50s (our compound relative to DTG) against P142A: 9.1
HIV-1 IN mutant P142A; Human immunodeficiency virus 1, read-out: EC50 values P142A
  EC50: 0.0228 ± 0.0025 µM
WT HIV-1
  EC50: 0.0106 ± 0.001 µM
